Assay results published in patent US20210379010A1, “COMPOSITIONS COMPRISING CANNABINOIDS FOR USE IN THE TREATMENT OF BIOFILM AND CONDITIONS ASSOCIATED WITH MICROBIAL, FUNGAL, BACTERIAL INFECTIONS” (Yissum Research Development Company of The Hebrew …, priority 2018, published 2021).

Assays:
[1] = system: fluconazole resistant C. albicans strain DSY735 biofilm; details: Table 2
[2] = system: fluconazole resistant C. albicans strain DSY551 biofilm; details: Table 2
[3] = MBIC of fluconazole in combination with ARAS

OC(Cn1cncn1)(Cn1cncn1)c1ccc(F)cc1F [FLU, fluconazole, reference compound]
FBIC FLU [1, 3]: 4 µg/mL
MBIC FLU ([1]; fluconazole alone): >64 µg/mL
FBIC FLU [2, 3]: 2 µg/mL
MBIC FLU ([2]; fluconazole alone): >64 µg/mL
